Source: paper PMC9637864 (Current Research in Toxicology, 2022)
“Also recorded” adds a separate entry of the source. Read-outs that look alike come from different tables or passages of the source.

Assays:
human FXRα [1] = target: T1, human FXRα (Homo sapiens, UniProt Q96RI1); experiment: cell-based
T1 sequence (Q96RI1 1-486): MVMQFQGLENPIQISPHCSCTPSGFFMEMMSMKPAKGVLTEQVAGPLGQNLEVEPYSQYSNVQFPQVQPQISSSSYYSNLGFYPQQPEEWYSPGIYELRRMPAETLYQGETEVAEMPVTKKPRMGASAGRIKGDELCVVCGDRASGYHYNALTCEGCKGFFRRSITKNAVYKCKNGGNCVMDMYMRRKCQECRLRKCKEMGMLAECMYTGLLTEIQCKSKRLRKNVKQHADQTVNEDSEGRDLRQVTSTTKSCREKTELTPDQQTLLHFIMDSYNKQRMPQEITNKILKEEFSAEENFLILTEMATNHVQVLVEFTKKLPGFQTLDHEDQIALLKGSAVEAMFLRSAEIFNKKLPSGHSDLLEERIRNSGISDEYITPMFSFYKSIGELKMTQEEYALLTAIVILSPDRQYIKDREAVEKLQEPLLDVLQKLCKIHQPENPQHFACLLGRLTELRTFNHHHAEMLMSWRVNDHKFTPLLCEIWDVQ
T1 sequence (P19793 1-462 partner): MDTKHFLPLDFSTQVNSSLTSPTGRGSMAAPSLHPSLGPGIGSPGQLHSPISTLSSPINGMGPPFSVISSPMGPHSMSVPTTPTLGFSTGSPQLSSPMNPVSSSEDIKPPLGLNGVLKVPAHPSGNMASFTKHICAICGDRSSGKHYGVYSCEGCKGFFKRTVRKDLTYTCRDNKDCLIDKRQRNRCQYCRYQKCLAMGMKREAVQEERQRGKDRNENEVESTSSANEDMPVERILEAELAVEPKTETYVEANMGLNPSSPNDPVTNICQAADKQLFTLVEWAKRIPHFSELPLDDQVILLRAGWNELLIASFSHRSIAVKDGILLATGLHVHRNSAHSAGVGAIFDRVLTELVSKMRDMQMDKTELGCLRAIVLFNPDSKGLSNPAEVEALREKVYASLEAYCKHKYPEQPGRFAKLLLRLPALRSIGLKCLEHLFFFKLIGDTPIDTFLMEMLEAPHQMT

Human FXRa [2] = conditions: Antagonists, cited from earlier work; for AC50: Tox21 qHTS, ref US EPA CompTox Chemicals Dashboard; for Tox21 Results Human FXRa Activity Human FXRa: Hsu et al. 2016
medaka FXRα2 [3] = target: T2, medaka FXRα2 (Oryzias latipes, UniProt H2M6M7); experiment: Transient transactivation luciferase assay in HEK293T cells, antagonist mode; assay type: cell-based; conditions: Antagonists, in the presence of GW4064
T2 sequence (H2M6M7 1-485): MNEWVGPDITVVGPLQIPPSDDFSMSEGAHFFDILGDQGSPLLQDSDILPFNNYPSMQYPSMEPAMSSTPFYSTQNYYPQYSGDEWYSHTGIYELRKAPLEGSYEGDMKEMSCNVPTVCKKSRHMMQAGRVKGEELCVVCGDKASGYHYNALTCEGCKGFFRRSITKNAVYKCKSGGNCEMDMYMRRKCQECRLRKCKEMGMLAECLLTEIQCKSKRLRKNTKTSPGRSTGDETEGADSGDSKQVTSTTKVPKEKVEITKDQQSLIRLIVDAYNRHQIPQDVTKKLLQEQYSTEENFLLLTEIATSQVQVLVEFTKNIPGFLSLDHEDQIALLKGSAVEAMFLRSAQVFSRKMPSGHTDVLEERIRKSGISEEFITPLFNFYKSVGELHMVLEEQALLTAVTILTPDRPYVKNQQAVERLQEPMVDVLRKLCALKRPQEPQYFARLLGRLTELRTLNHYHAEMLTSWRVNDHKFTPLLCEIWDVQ

Human FXRa [4] = conditions: Agonists, cited from earlier work
human FXRα [5] = target: T1, human FXRα; assay type: cell-based
medaka FXRα2 [6] = target: T2, medaka FXRα2; experiment: Transient transactivation luciferase assay in HEK293T cells, agonist mode; assay type: cell-based
medaka larvae = experiment: Toxicity to medaka larvae during in vivo exposure; design: species or system Medaka (Oryzias latipes); conditions: between 0.5 and 10 µM
[7] = target: NR box of human PGC1α fused to the yeast Gal4 DNA-binding domain (pM-PGC1α) (human) (UniProt Q9UBK2); experiment: two-hybrid
Chain of NR box of human PGC1α fused to the yeast Gal4 DNA-binding domain (pM-PGC1α) (human) (Q9UBK2 whole entry, the tested form may be a part): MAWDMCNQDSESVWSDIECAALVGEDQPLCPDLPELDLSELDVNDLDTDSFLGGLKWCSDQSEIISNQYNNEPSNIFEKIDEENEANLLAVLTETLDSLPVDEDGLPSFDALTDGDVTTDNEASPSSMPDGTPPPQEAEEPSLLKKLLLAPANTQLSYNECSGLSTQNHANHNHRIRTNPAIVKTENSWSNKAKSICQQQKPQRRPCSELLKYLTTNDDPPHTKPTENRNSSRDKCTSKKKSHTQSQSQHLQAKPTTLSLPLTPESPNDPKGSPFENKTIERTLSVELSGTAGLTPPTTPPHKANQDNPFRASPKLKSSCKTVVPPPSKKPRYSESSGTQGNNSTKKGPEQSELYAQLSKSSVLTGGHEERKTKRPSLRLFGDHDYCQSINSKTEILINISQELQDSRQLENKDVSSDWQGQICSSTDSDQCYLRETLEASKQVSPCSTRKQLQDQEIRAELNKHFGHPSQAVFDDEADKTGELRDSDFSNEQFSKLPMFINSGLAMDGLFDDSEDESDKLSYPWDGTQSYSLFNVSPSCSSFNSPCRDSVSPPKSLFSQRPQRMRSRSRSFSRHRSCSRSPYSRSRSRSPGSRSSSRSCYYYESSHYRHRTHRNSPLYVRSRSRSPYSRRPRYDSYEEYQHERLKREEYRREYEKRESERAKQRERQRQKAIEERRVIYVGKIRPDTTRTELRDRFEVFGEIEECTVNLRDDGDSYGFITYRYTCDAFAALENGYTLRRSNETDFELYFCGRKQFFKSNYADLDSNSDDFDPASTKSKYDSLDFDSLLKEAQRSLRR

[8] = target: NR box of human PGC1α fused to the yeast Gal4 DNA-binding domain (pM-PGC1α) (human) (UniProt Q9UBK2); experiment: two-hybrid; remark: listed apart in the source
[9] = Tox21 qHTS, ref US EPA CompTox Chemicals Dashboard
[10] = read-out: Current Study Human FXRa AC50
[11] = Agonists, HEK293T, 24 h, listed as maleic hydrazide
[12] = Agonists, HEK293T, 24 h, listed as prometon

Cc1c(COC(=O)[C@@H]2[C@H](/C=C(\Cl)C(F)(F)F)C2(C)C)cccc1-c1ccccc1 (racemic) [Bifenthrin]
AC50 (human FXRα [1]): 34.6 µM | Current Study Human FXRa Activity Human FXRa (human FXRα [1]): Active | EC50 (human FXRα [1]): 34.6 µM | AC50 (Human FXRa [2]): 13.3 µM | Tox21 Results Human FXRa Activity Human FXRa (Human FXRa [2]; ref Tox21 dataset): Active | Tox21 Results Human FXRa AC50 (Human FXRa [2]; ref Tox21 dataset): 4.96 µM | Current Study Medaka FXRa2 Activity Medaka FXRa2 (medaka FXRα2 [3]): exhibited antagonist activity; also recorded: Active

CCC(C)(c1ccc(O)cc1)c1ccc(O)cc1 [Bisphenol B]
AC50 (human FXRα [1]): 11.9 µM | Current Study Human FXRa Activity Human FXRa (human FXRα [1]): Active | EC50 (human FXRα [1]): 11.9 µM | AC50 (Human FXRa [2]): 57.2 µM | Tox21 Results Human FXRa Activity Human FXRa (Human FXRa [2]; ref Tox21 dataset): Active | Current Study Medaka FXRa2 Activity Medaka FXRa2 (medaka FXRα2 [3]): Active | Current Study Medaka FXRa2 Activity Medaka FXRa2 (medaka FXRα2 [3]; listed as bisphenol B): exhibited antagonist activity

C[C@@H]1C[C@H]2O[C@@]3(O[C@@H]2C(C)(C)O)[C@H](O)[C@@]2(C)[C@@H]4CC[C@H]5C(C)(C)[C@@H](O[C@@H]6OC[C@@H](O)[C@H](O)[C@H]6O)CC[C@@]56C[C@@]46CC[C@]2(C)[C@@H]13 [Cimicifugoside]
AC50 (Human FXRa [4]; [9]): 5 µM | Activity Decision (Human FXRa [4]; [9]): Active | Tox21 Results Human FXRa AC50 (Human FXRa [4]; ref Tox21 dataset): 5.52 µM | Tox21 Results Human FXRa Activity Human FXRa (Human FXRa [4]; ref Tox21 dataset): Active | Current Study Human FXRa Activity Human FXRa (human FXRα [5]): Active | AC50 (human FXRα [5]; [10]): 9.8 µM | Current Study Medaka FXRa2 Activity Medaka FXRa2 (medaka FXRα2 [6]; Agonists, HEK293T, 24 h): Active | AC50 (medaka FXRα2 [6]; read-out: Current Study Medaka FXRa2 AC50, Agonists, HEK293T, 24 h): > 100 µM

COc1cc2c(c(OC)c1OC)-c1ccc(OC)c(=O)cc1[C@@H](NC(C)=O)CC2 [Colchicine, reference compound]
Current Study Human FXRa Activity Human FXRa (human FXRα [1]): Inactive | Tox21 Results Human FXRa Activity Human FXRa (Human FXRa [2]; ref Tox21 dataset): Inactive | Current Study Medaka FXRa2 Activity Medaka FXRa2 (medaka FXRα2 [3]): Inactive

CC(C)c1onc(-c2c(Cl)cccc2Cl)c1COc1ccc(C=Cc2cccc(C(=O)O)c2)c(Cl)c1 [GW4064, 3-(2,6-Dichlorophenyl)-4-(3′-carboxy-2-chlorostilben-4-yl) oxymethyl-5-isopropylisoxazole, reference compound]
EC50 (medaka FXRα2 [6]): 269 nM

O=c1ccc(=O)[nH][nH]1 [Maleic hydrazide]
Activity Decision (Human FXRa [4]; [9]): Inactive | Tox21 Results Human FXRa Activity Human FXRa (Human FXRa [4]; ref Tox21 dataset): Inactive | Current Study Human FXRa Activity Human FXRa (human FXRα [5]; Agonists, HEK293T, 24 h): Inactive | Current Study Human FXRa Activity Human FXRa (human FXRα [5]; [11]): confirmed inactive | cytotoxicity / toxicity to medaka larvae in agonist exposures (medaka larvae): significant cytotoxicity | Current Study Medaka FXRa2 Activity Medaka FXRa2 (medaka FXRα2 [6]; Agonists, HEK293T, 24 h): Inactive | Current Study Medaka FXRa2 Activity Medaka FXRa2 (medaka FXRα2 [6]; [11]): confirmed as inactive

CO/N=C1\C[C@]2(C[C@@H]3C[C@@H](C/C=C(\C)C[C@@H](C)/C=C/C=C4\CO[C@@H]5[C@H](O)C(C)=C[C@@H](C(=O)O3)[C@]45O)O2)O[C@H](/C(C)=C/C(C)C)[C@H]1C [Moxidectin, reference compound]
AC50 (human FXRα [1]): 12.5 µM | Current Study Human FXRa Activity Human FXRa (human FXRα [1]): Active | EC50 (human FXRα [1]): 12.5 µM | Tox21 Results Human FXRa Activity Human FXRa (Human FXRa [2]; ref Tox21 dataset): Active/Inactive | Current Study Medaka FXRa2 Activity Medaka FXRa2 (medaka FXRα2 [3]): Active

O=C1OC(c2ccc(O)cc2)(c2ccc(O)cc2)c2ccccc21 [Phenolphthalein]
cytotoxicity / toxicity to medaka larvae in agonist exposures (medaka larvae): significant cytotoxicity; also recorded: toxic to medaka larvae

COc1nc(NC(C)C)nc(NC(C)C)n1 [Prometon]
Activity Decision (Human FXRa [4]; [9]): Inactive | Tox21 Results Human FXRa Activity Human FXRa (Human FXRa [4]; ref Tox21 dataset): Inactive | Current Study Human FXRa Activity Human FXRa (human FXRα [5]; Agonists, HEK293T, 24 h): Inactive | Current Study Human FXRa Activity Human FXRa (human FXRα [5]; [12]): confirmed inactive | Current Study Medaka FXRa2 Activity Medaka FXRa2 (medaka FXRα2 [6]; Agonists, HEK293T, 24 h): Inactive | Current Study Medaka FXRa2 Activity Medaka FXRa2 (medaka FXRα2 [6]; [12]): confirmed as inactive

CCCCCCCC(=O)OCC(COC(=O)CCCCCCC)OC(=O)CCCCCCC [Tricaprylin]
Current Study Human FXRa Activity Human FXRa (human FXRα [1]): Inactive | Tox21 Results Human FXRa Activity Human FXRa (Human FXRa [2]; ref Tox21 dataset): Inactive | Current Study Medaka FXRa2 Activity Medaka FXRa2 (medaka FXRα2 [3]): Active | Current Study Medaka FXRa2 Activity Medaka FXRa2 (medaka FXRα2 [3]; listed as tricaprylin): exhibited antagonist activity

c1ccc(P(c2ccccc2)c2ccccc2)cc1 [Triphenylphosphine]
cytotoxicity / toxicity to medaka larvae in agonist exposures (medaka larvae): significant cytotoxicity

Ivermectin [reference compound]
Current Study Human FXRa Activity Human FXRa (human FXRα [1]): Active | AC50 (human FXRα [1]; [10]): 2.35 µM | Tox21 Results Human FXRa Activity Human FXRa (Human FXRa [2]; ref Tox21 dataset): Active | Current Study Medaka FXRa2 Activity Medaka FXRa2 (medaka FXRα2 [3]): Active | AC50 (medaka FXRα2 [3]; read-out: Current Study Medaka FXRa2 AC50): 11.2 µM

VP16 activation domain fused to medaka FXRα2 (pVP16-mFXRα2) (receptor)
recruitment with moxidectin, percent (reference as for human FXRα: GW4064 alone) [7]: 126%

B1: VP16 activation domain fused to full-length human FXRα (pVP16-hFXRα) (receptor)
chain: T1 sequence (Q96RI1 1-486)
recruitment with moxidectin and GW4064, percent of that with GW4064 alone [8]: 132%
